Reference: patent US6893665B2, “Formulations for treating or preventing mucositis” (Orapharma, Inc., priority 1999, dated 2005)
Counter-ions that a name gives are not always drawn.

Test system: mucositis induced by acute radiation exposure of the cheek pouch
Experiment: Hamster cheek pouch model of radiation-induced oral mucositis, topical dosing, clinical scoring 0-5
Type: in vivo
Details: hamsters, 35 Gy on Day 0, 0.1 mL of 0.1 mg/mL aqueous solution topically three times a day for 22 days; for mucositis scores (clinical scoring 0-5) versus placebo control group: compared with solution without drug
Description: Hamsters were randomly assigned to treatment groups with eight (8) animals per group. Each group was treated either with a drug solution or a control, water.
Animals were dosed three times a day for 22 days. The first dose was applied on day —1. Either a solution of the drug or water alone was applied in a volume of 0.1 ml three times per day.
Mucositis was induced by acute radiation exposure of the check pouch. A single dose of radiation (35 Gy/dose) was administered to all animals on Day 0. Prior to irradiation, animals were anesthetized with an intraperiotoneal injection of sodium pentobarbital (80 mg/kg) and the left buccal pouch was everted, fixed and isolated using a lead shield.
Beginning on day 6 and continuing every other day up to day 28, the cheek pouch was photographed. On days that photographs were taken, prior to the first dosing of the day, the animals were anesthetized using an inhalation anesthetic and the left cheek pouch of each animal was rinsed vigorously with sterile water to remove residual food debris or foreign contamination and blotted dry with a gauze sponge. The appearance of the cheek pouch was scored visually by comparison to a validated photographic scale, ranging from 0 for normal to 5 for severe ulceration (clinical scoring). In descriptive terms, this scale is defined as follows: […]
A score of 1-2 represents mild stage of the disease, whereas a score of 3-5 indicates moderate to severe mucositis.

Compound | reduction in the number of animal days with scores of 3 or more, relative to the control group | mucositis scores (clinical scoring 0-5) versus placebo control group
CN(C)[C@@H]1C(O)=C(C(N)=O)C(=O)[C@@]2(O)C(O)=C3C(=O)c4c(O)cccc4[C@@](C)(O)[C@H]3C[C@@H]12 [tetracycline hydrochloride] | more than 75% | Significantly lower scores
meclocycline sulfosalicylate | more than 75% | Significantly lower scores
